Test [1] addresses Beta-1 adrenergic receptor (Cavia porcellus, UniProt B0FL73). The test can be described thus: Compound was tested for its Beta-1 adrenergic receptor antagonistic activity on guinea pig atria. The class given is functional. Conditions: read-out: pA2 (converted).
For test [2], the target named is Beta-2 adrenergic receptor (Cavia porcellus, UniProt Q8K4Z4). As to the kind of experiment: Beta-2 adrenergic receptor antagonistic activity on guinea pig tracheal chains. Format: functional. Conditions: read-out: pA2 (converted).
Test [3] concerns the target Beta-2 adrenergic receptor (Bos taurus, UniProt Q28044). As to the kind of experiment: Compound was tested for inhibition of [3H]dihydroalprenolol radioligand binding to Beta-2 adrenergic receptor in calf lung membranes. The class given is cell membranes.

Consider six molecules from ChEMBL document CHEMBL1122110, “Use of (S)-(trifloxymethyl)oxirane in the synthesis of a chiral beta-adrenoceptor antagonist, (R)- and (S)-9-[[3-(tert-butylamino)-2-hydroxypropyl]oximino]fluorene” (J Med Chem, 1982).

Chain of Beta-2 adrenergic receptor (Bos taurus, UniProt Q28044) (Q28044 whole entry): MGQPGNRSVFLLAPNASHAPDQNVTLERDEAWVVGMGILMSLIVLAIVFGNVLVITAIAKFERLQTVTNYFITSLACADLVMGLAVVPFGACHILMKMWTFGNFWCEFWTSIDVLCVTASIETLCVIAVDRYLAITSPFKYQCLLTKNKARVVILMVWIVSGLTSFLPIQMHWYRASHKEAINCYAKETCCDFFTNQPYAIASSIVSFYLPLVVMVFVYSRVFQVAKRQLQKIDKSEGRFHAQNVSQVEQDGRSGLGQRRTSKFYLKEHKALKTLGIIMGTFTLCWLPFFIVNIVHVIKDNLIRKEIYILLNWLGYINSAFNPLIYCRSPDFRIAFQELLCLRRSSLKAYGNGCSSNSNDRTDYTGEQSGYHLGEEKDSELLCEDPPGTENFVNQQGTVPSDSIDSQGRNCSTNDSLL
Chain of Beta-1 adrenergic receptor (B0FL73 whole entry): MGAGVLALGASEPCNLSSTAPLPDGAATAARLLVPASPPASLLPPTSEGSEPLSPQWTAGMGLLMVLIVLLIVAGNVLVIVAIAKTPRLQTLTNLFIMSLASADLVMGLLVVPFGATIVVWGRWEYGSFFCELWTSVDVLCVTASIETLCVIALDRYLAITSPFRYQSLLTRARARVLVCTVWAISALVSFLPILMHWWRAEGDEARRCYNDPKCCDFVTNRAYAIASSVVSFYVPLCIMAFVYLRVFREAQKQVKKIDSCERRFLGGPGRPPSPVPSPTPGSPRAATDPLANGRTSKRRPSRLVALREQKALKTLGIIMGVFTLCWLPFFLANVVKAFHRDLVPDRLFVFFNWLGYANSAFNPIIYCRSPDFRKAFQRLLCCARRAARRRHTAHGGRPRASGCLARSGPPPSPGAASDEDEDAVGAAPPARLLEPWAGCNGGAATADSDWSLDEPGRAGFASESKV
Chain of Beta-2 adrenergic receptor (Cavia porcellus, UniProt Q8K4Z4) (Q8K4Z4 whole entry): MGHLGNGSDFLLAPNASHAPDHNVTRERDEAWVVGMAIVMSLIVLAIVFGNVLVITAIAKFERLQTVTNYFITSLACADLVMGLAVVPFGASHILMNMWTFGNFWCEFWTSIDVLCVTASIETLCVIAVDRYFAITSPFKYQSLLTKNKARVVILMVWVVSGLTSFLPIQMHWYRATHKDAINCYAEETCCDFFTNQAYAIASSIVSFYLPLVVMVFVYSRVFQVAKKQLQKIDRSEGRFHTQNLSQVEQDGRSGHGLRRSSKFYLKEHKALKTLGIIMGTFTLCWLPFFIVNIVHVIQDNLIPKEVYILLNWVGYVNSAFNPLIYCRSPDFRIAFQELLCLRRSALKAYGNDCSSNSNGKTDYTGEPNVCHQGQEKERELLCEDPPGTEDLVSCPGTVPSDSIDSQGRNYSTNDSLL

As to `CCC(C)(C)NCC(O)CON=C1c2ccccc2-c2ccccc21` (stereo unspecified), the Kb in test [1] is 34.7 nM; in test [2], 85.1 nM.

`CC(C)(C)NC[C@@H](O)CON=C1c2ccccc2-c2ccccc21`: the Kb in test [1] is 13.2 nM; in test [2], 18.2 nM. For the same molecule, the concentration for half-maximal inhibition (IC50) in test [3] was 20.1 nM.

`CCC(C)(C)NC[C@H](O)CON=C1c2ccccc2-c2ccccc21`: the Kb was 16.6 nM in test [1] and 74.1 nM in test [2].

Consider `Cc1ccc(OCC(O)CNC(C)C)c2c1CCC2` (stereo unspecified), for which the Kb in test [1] is 97.7 nM; in test [2], 31.6 nM. Further, the IC50 in test [3] was 17.6 nM.

In the case of `CC(C)(C)NC[C@H](O)CON=C1c2ccccc2-c2ccccc21`, the Kb in test [1] was 37.2 nM; in test [2] it was 17 nM. Also, the IC50 in test [3] was 30.8 nM.

In the case of `CC(C)(C)NCC(O)CON=C1c2ccccc2-c2ccccc21` (stereo unspecified), the Kb in test [1] is 33.9 nM; in test [2], 66.1 nM. Further, the 50% inhibitory concentration (IC50) in test [3] was determined as 24.6 nM.

By IC50 is commonly meant the concentration needed to halve the response being measured. Read a low IC50 as greater potency in that assay.
